Active and inactive are the calls of the source. No cut-off for these calls is given here.
How the values were obtained:
[1] = Antitumor activity against mouse H22-H8D8 cells implanted in ICR mouse assessed as tumor growth inhibition at 20 mg/kg, iv relative to control; format: functional; details: read-out: TGI
[2] = system: HepG2; assay: Induction of apoptosis in human HepG2 cells assessed as live cells at 2 uM after 24 hrs by Annexin V-APC/7-AAD staining based flow cytometry (reference value: 87%); format: functional
[3] = system: HepG2; assay: Induction of apoptosis in human HepG2 cells assessed as increase in cleaved caspase-3 expression after 24 hrs by Western blot method; format: functional, cell-based
[4] = biological target: DNA topoisomerase 2-alpha (Homo sapiens) (UniProt P11388); assay: Inhibition of DNA topoisomerase-2alpha (unknown origin) assessed as reduction in enzyme-catalyzed relaxation of pBR322 DNA substrate at 20 to 500 nM after 30 mins by ethidium bromide staining based electrophoresis
Chain of DNA topoisomerase 2-alpha (Homo sapiens) (P11388 whole entry): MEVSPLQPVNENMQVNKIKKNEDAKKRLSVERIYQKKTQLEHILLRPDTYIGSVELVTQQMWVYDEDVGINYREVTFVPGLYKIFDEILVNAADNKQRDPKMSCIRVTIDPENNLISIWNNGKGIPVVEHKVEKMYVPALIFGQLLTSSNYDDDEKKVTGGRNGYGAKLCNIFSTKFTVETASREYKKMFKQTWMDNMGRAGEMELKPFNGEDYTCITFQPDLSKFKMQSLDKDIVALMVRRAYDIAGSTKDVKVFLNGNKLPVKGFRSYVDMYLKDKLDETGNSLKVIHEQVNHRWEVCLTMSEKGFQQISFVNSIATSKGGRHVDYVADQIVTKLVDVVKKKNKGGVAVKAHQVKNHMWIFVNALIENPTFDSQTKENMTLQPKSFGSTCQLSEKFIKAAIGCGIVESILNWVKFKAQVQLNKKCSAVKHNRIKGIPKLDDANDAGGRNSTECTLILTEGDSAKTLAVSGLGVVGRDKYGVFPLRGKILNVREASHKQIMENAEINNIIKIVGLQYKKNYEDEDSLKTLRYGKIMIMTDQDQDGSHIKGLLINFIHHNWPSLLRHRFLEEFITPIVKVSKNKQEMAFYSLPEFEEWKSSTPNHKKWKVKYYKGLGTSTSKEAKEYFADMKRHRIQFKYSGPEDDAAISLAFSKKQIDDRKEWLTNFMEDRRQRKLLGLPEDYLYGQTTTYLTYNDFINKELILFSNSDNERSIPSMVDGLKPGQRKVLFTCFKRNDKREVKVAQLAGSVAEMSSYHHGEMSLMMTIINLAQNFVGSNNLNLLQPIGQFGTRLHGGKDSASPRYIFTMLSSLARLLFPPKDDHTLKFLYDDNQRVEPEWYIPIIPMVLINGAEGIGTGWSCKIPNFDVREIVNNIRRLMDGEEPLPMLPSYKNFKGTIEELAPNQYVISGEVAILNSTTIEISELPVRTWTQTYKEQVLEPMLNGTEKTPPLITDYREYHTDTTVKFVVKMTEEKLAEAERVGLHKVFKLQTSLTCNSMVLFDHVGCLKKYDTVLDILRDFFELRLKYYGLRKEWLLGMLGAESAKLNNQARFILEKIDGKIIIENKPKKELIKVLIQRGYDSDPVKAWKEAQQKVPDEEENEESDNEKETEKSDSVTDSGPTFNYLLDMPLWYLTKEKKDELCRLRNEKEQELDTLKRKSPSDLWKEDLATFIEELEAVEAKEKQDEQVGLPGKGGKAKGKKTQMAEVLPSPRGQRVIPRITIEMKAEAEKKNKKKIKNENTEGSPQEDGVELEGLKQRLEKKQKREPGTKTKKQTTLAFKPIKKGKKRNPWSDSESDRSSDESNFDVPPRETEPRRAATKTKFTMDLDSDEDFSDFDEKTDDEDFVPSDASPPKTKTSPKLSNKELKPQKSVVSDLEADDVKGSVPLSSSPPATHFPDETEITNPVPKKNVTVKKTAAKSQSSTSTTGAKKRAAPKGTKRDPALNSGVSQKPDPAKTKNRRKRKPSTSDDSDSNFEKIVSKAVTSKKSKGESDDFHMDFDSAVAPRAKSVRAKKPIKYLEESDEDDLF

[5] = system: HepG2; assay: Induction of apoptosis in human HepG2 cells assessed as necrotic cells at 4 uM after 24 hrs by Annexin V-APC/7-AAD staining based flow cytometry (reference value: 5.35%); format: functional
[6] = system: HepG2; assay: Induction of apoptosis in human HepG2 cells after 24 hrs by Annexin V-APC/7-AAD staining based flow cytometry; format: functional, cell-based
[7] = Antitumor activity against mouse H22-H8D8 cells implanted in ICR mouse assessed as tumor growth inhibition at 10 mg/kg, iv relative to control; format: functional; details: read-out: TGI
[8] = system: HepG2; assay: Induction of apoptosis in human HepG2 cells assessed as late apoptotic cells at 4 uM after 24 hrs by Annexin V-APC/7-AAD staining based flow cytometry (reference value: 6.86%); format: functional
[9] = system: HCT-116; assay: Antiproliferative activity against human HCT116 cells after 48 hrs by MTT assay; format: functional, cell-based; details: HCT-116, 48 h
[10] = system: Mus musculus; assay: Toxicity in ICR mouse implanted with mouse H22-H8D8 cells assessed as body weight at 20 mg/kg, iv (reference value: 29.89 to 33.78 g); format: organism-based; details: in vivo
[11] = system: HepG2; assay: Induction of apoptosis in human HepG2 cells assessed as late apoptotic cells at 8 uM after 24 hrs by Annexin V-APC/7-AAD staining based flow cytometry (reference value: 6.86%); format: functional
[12] = system: HepG2; assay: Cell cycle arrest in human HepG2 cells assessed as accumulation at G2/M phase after 24 hrs by propidium iodide staining based flow cytometry; format: functional
[13] = system: HepG2; assay: Antiproliferative activity against human HepG2 cells after 48 hrs by MTT assay; format: functional, cell-based; details: HepG2, 48 h
[14] = system: HepG2; assay: Induction of apoptosis in human HepG2 cells assessed as increase in cytochrome c release from mitochondria to cytosol up to 8 uM after 24 hrs by Western blot method; format: functional, cell-based
[15] = biological target: T1, DNA topoisomerase 1 (Homo sapiens) (UniProt P11387); assay: Inhibition of DNA topoisomerase-1 (unknown origin) assessed as reduction in enzyme-catalyzed relaxation of pBR322 DNA substrate at 20 uM after 30 mins by ethidium bromide staining based electrophoresis
T1 sequence (whole entry): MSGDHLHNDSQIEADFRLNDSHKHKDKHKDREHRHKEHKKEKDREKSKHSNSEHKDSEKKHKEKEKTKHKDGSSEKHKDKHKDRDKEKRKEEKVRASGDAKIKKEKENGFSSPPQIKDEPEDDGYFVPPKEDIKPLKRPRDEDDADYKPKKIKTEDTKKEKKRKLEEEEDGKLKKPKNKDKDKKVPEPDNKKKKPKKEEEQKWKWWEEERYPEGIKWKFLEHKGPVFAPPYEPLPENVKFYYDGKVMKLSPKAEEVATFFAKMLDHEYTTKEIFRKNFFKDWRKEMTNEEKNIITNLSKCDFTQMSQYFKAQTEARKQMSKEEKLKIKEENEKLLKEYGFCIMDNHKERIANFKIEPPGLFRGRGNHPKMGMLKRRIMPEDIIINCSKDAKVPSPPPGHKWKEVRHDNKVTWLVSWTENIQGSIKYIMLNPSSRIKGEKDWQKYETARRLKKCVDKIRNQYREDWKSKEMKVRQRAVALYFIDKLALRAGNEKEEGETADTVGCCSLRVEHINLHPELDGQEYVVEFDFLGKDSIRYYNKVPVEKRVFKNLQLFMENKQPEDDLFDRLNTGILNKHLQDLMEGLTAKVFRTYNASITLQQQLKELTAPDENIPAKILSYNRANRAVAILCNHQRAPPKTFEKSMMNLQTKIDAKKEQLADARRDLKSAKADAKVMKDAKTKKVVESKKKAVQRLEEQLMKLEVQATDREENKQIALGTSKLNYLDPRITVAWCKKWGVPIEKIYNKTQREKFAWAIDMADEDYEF

[16] = system: HepG2; assay: Induction of apoptosis in human HepG2 cells assessed as necrotic cells at 8 uM after 24 hrs by Annexin V-APC/7-AAD staining based flow cytometry (reference value: 5.35%); format: functional
[17] = system: Mus musculus; assay: Toxicity in ICR mouse implanted with mouse H22-H8D8 cells assessed as body weight at 5 mg/kg, iv (reference value: 29.89 to 33.78 g); format: organism-based; details: in vivo
[18] = system: HepG2; assay: Induction of apoptosis in human HepG2 cells assessed as live cells at 4 uM after 24 hrs by Annexin V-APC/7-AAD staining based flow cytometry (reference value: 87%); format: functional
[19] = system: HepG2; assay: Induction of apoptosis in human HepG2 cells assessed as early apoptotic cells at 4 uM after 24 hrs by Annexin V-APC/7-AAD staining based flow cytometry (reference value: 0.774%); format: functional
[20] = system: HepG2; assay: Induction of apoptosis in human HepG2 cells assessed as late apoptotic cells at 2 uM after 24 hrs by Annexin V-APC/7-AAD staining based flow cytometry (reference value: 6.86%); format: functional
[21] = system: HepG2; assay: Induction of apoptosis in human HepG2 cells assessed as necrotic cells at 2 uM after 24 hrs by Annexin V-APC/7-AAD staining based flow cytometry (reference value: 5.35%); format: functional
[22] = biological target: DNA topoisomerase 2-alpha (Homo sapiens) (UniProt P11388); assay: Inhibition of DNA topoisomerase-2alpha (unknown origin) assessed as reduction in enzyme-catalyzed relaxation of pBR322 DNA substrate at 20 uM after 30 mins by ethidium bromide staining based electrophoresis
[23] = system: HepG2; assay: Upregulation of p21 protein expression in human HepG2 cells after 24 hrs by Western blot method; format: functional, cell-based
[24] = system: HepG2; assay: Downregulation of CDK1 protein expression in human HepG2 cells after 24 hrs by Western blot method; format: functional, cell-based
[25] = system: HepG2; assay: Induction of apoptosis in human HepG2 cells assessed as live cells at 8 uM after 24 hrs by Annexin V-APC/7-AAD staining based flow cytometry (reference value: 87%); format: functional
[26] = system: HepG2; assay: Induction of apoptosis in human HepG2 cells assessed as increase in Bax/Bcl2 ratio up to 8 uM after 24 hrs by Western blot method; format: functional, cell-based
[27] = system: HepG2; assay: Downregulation of cyclin B protein expression in human HepG2 cells after 24 hrs by Western blot method; format: functional, cell-based
[28] = system: A549; assay: Antiproliferative activity against human A549 cells after 48 hrs by MTT assay; format: functional, cell-based; details: A549, 48 h
[29] = biological target: T1, DNA topoisomerase 1 (Homo sapiens); assay: Inhibition of DNA topoisomerase-1 (unknown origin) assessed as reduction in enzyme-catalyzed relaxation of pBR322 DNA substrate at 2.5 to 5 uM after 30 mins by ethidium bromide staining based electrophoresis
[30] = system: MCF7; assay: Antiproliferative activity against human MCF7 cells after 48 hrs by MTT assay; format: functional, cell-based; details: MCF7, 48 h
[31] = system: HepG2; assay: Induction of apoptosis in human HepG2 cells assessed as early apoptotic cells at 8 uM after 24 hrs by Annexin V-APC/7-AAD staining based flow cytometry (reference value: 0.774%); format: functional
[32] = system: HepG2; assay: Induction of apoptosis in human HepG2 cells assessed as early apoptotic cells at 2 uM after 24 hrs by Annexin V-APC/7-AAD staining based flow cytometry (reference value: 0.774%); format: functional
[33] = system: HepG2; assay: Upregulation of p53 protein expression in human HepG2 cells after 24 hrs by Western blot method; format: functional, cell-based
[34] = system: HepG2; assay: Induction of apoptosis in human HepG2 cells assessed as increase in cleaved caspase-9 expression after 24 hrs by Western blot method; format: functional, cell-based
[35] = system: Mus musculus; assay: Toxicity in ICR mouse implanted with mouse H22-H8D8 cells assessed as body weight at 10 mg/kg, iv (reference value: 29.89 to 33.78 g); format: organism-based; details: in vivo
[36] = Antitumor activity against mouse H22-H8D8 cells implanted in ICR mouse assessed as tumor growth inhibition at 5 mg/kg, iv relative to control; format: functional; details: read-out: TGI
[37] = system: HepG2; assay: Cell cycle arrest in human HepG2 cells assessed as accumulation at subG1 phase at 2 to 8 uM after 24 hrs by propidium iodide staining based flow cytometry; format: functional

inhibition [4]: Active | IC50 [9]: 8 µM | IC50 [13]: 2.1 µM | inhibition [15]: Active | inhibition [22]: Active | IC50 [28]: 6.8 µM | inhibition [29]: Active | IC50 [30]: 7.3 µM
SMILES: N#CC1=C(N)Oc2c(N)cc3nc4ccccc4nc3c2C1c1ccc(Cl)c(Cl)c1 (configuration not stated)
inhibition in vivo at 20 mg/kg [1]: 77.8% | Activity [2]: 80% | Activity [3]: Dose-dependent effect | Activity [5]: 14.9% | Activity [6]: Dose-dependent effect | inhibition in vivo at 10 mg/kg [7]: 68.9% | Activity [8]: 31.5% | Activity [10]: 35.22 g | Activity [11]: 53.5% | Activity [12]: Dose-dependent effect | Activity [14]: Active | Activity [16]: 20.7% | Activity [17]: 38 g | Activity [18]: 44.7% | Activity [19]: 8.97% | Activity [20]: 11.2% | Activity [21]: 5.65% | Activity [23]: Dose-dependent effect | Activity [24]: Dose-dependent effect | Activity [25]: 22.5% | Activity [26]: Active | Activity [27]: Dose-dependent effect | Activity [31]: 3.31% | Activity [32]: 3.1% | Activity [33]: Dose-dependent effect | Activity [34]: Dose-dependent effect | Activity [35]: 35.33 g | inhibition in vivo at 5 mg/kg [36]: 7.78% | Activity [37]: Active

From ChEMBL document CHEMBL3992500, “Design, facile synthesis and biological evaluations of novel pyrano[3,2-a]phenazine hybrid molecules as antitumor agents” (Eur J Med Chem, 2017)
